This is an account of results in ChEMBL document CHEMBL1150562, “Glánvillic acids A and B and methyl capucinoate A, new metabolites isolated from the Caribbean sponges Plakortis halichondrioides and Plakinastrella onkodes” (J Nat Prod, 2001).

Converted amounts (≈) assume the structure as drawn. The source made the active and inactive calls. The calls are words filed in the database; no cut-off is given here. Where only a bound is given, the exact number is not on record here.

For experiment [1], the system named is P388. Nature of the experiment: Cytotoxicity against mouse P388 cells. It counts as functional, cell-based.
Experiment [2] relates to P388. Nature of the experiment: In vivo cytotoxicity against mouse P388 cells. It counts as functional, organism-based.
A short description of experiment [3]: Cytotoxicity against mouse B16-F1 cells. The experiment is classed as functional, cell-based.

Take `CC/C=C/C(CC)CC(C)CC1(CC)C=C(CC)C(C(=O)O)OO1` (stereo not drawn): the concentration for half-maximal inhibition (IC50) (as a rule, the concentration that gives 50% inhibition) with P388 [1] was determined as 0.055 µg/mL (≈ 0.162 µM). In addition, in the experiment on P388 [2], the outcome was inactive.

On to `COC(=O)C[C@@H]1OO[C@@](C)(/C(C)=C/C(C)=C/Cc2ccccc2)C[C@H]1C`, for which the IC50 in experiment [3] was 12 µg/mL (≈ 33.5 µM). Moreover, the result in the experiment on P388 [2] was inactive.

The compound `CC/C=C/C(CC)CC(C)Cc1cc(CC)c(CC(=O)O)o1` (stereo not drawn) [GLANVILLIC ACID A] yielded an IC50 with P388 [1] of more than 20 µg/mL.

As to `CCCC(CC)CC(C)Cc1cc(CC)c(CC(=O)O)o1` (stereo not drawn) [GLNVILLIC ACID B], the IC50 in the experiment on P388 [1] was more than 20 µg/mL.

Compound `COC(=O)C[C@@H]1OO[C@@](C)(/C(C)=C/C=C/Cc2ccccc2)C[C@H]1C` [METHYL CAPUCINOATE A] gave a 50% inhibitory concentration (IC50) in experiment [3] of 12 µg/mL (≈ 34.8 µM). In addition, the outcome in the experiment on P388 [2] was inactive.
